Data on seven substances can be found in US10066204B2, “Chemically labile peptide-presenting surfaces for cellular self-assembly” (Wisconsin Alumni Research Foundation, priority 2013, dated 2018).

Read-outs that look alike come from different tables or passages of the source.

One assay relates to hESC (H1). Particulars: for cell adhesion of the hESC monolayer by adhesion ligand on the array spot: FIG. 2B/2C. Here is the method: Gold slides were placed into a 150 mm glass Petri dish, covered with EtOH and sonicated for ˜1 minute using an ultrasonic bath (Bransonic 1510, Branson, Danbury, Conn.). Sonicated gold chips were then rinsed with EtOH and blown dry with N2. […] For spot shape, elastomeric stencils with arrays in the shape of circles, ovals, and oval cross were placed on a bare gold surface to form an array of wells having these shapes on the gold substrate. Wells were then filled with 1 mM ethanolic alkanethiolate solution and incubated for 10 minutes in a chamber containing a laboratory wipe soaked in ethanol to prevent evaporation during local SAM formation. Alkanethiolate solutions were then aspirated and wells were rinsed with DIUF H2O. Carboxylate groups were then converted to active ester groups by adding a solution of 100 mM NHS and 250 mM EDC in DIUF H2O pH 5.5 to wells and incubated for 10 minutes. After an additional rinse with DIUF H2O, 300 μM solutions of […] (SEQ ID NO: 5; commercially available from GenScript, Piscataway, N.J.) or […] (SEQ ID NO: 6; commercially available from GenScript, Piscataway, N.J.) in PBS and pH 7.4 were added to each well and incubated for 1 hour in a humidity controlled chamber to covalently couple peptides to each array spot. After a final rinse in DIUF H2O, regions surrounding array spots were backfilled with HS—C11-EG3-OH. This was accomplished by submerging the gold substrate and attached elastomeric stencil in an aqueous 0.1 mM HS—C11-EG3-OH solution (pH 2.0), removing the stencil, and incubating for 10 minutes. Following backfilling, the array was rinsed with 0.1 wt % SDS in DIUF H2O, DIUF H2O, and EtOH and then dried under a stream of N2. Arrays were stored in sterile DIUF H2O at 4° C. and used within 24 hours.
Pluripotent stem cells were seeded on arrays at a density of 10^5 cells/cm^2. […] Colonies that spontaneously detached from SAM spots were also harvested. Colonies were analyzed for Oct 3/4 and Nanog expression by immunofluorescence using DAPI to stain nuclei.
The concentration of the integrin adhesion peptides […] (SEQ ID NO: 1) and cyclic RGD (SEQ ID NO: 4) on the array spot was varied between 2% and 10% by the fraction of COOH groups functionalized with peptides present at the spot among background OH functionalities.
After initial attachment of the cells to the glycosaminoglycan binding peptide […]
Specifically, a 1:1 functionalization with cyclic RGD (SEQ ID NO: 4) and […]

Assay [1] has as its system hESC monolayers (H1 hESC line). Particulars: for effect of soluble peptide on kinetics of aggregate assembly: 0.1 mM soluble peptide in culture media; for change in hESC colony projected area (indicative of aggregate self-assembly): both 5% COOH and 0.5% COOH SAMs. Here is the method:
Gold slides were placed into a 150 mm glass Petri dish, covered with EtOH and sonicated for 2 minutes using an ultrasonic bath (Bransonic 1510, Branson, Danbury, Conn.). Sonicated gold chips were then rinsed with EtOH and blown dry with N2. […] Wells were then filled with 1 mM ethanolic alkanethiolate solution and incubated for approximately 10 minutes at room temperature in a chamber containing a laboratory wipe soaked in ethanol to prevent evaporation during local SAM formation. Alkanethiolate solutions were then aspirated and wells were rinsed with DIUF H2O. Carboxylate groups were then converted to active ester groups by adding a solution of 100 mM NHS and 250 mM EDC (in pH 5.5 DIUF H2O) to wells and incubating for 15 minutes. After an additional rinse with DIUF H2O, 300 μM solutions of peptide(s) in pH 7.4 PBS were added to each well and incubated for 1 hour in a humidity-controlled chamber at room temperature to covalently couple peptides to each array spot. After a final rinse in DIUF H2O, regions surrounding array spots were backfilled with HS—C11-EG3-OH. This was accomplished by submerging the gold substrate and attached elastomeric stencil in an aqueous 0.1 mM HS—C11-EG3-OH solution (pH 2.0), removing the stencil, and incubating for 10 minutes. Following backfilling, the array was rinsed with 0.1 wt % SDS in DIUF H2O, DIUF H2O, and EtOH, and then dried under a stream of N2. Arrays were stored away from light in diH2O at room temperature and used within 24 hours.
Pluripotent stem cells (H1 hESC line) were seeded on arrays at a density of approximately 2×10^5 cells/cm^2 to achieve confluent monolayers within 4 hours.
(§1) Time lapse images were analyzed using edge detection software to track projected area of colonies with respect to initial colony area over time. A t50 of self-assembly was defined as the length of time required for a given patterned cell monolayer to reach 50% of its original 2D projected area, as assessed by automated edge detection. This metric is used throughout this specification to describe differences in the kinetics of aggregate self-assembly between different cell types and in different conditions.

The test system of assay [2] is hESC monolayers. Particulars: 5% SAMs. How it is done:
Colonies were analyzed for Oct4 and Nanog expression by immunofluorescence using DAPI to stain nuclei.
Self-assembled EBs formed from largely pluripotent 2D hESC populations. hESC monolayers cultured on array spots were stained for pluripotency markers Oct4 and Nanog, as well as DAPI to identify cell nuclei. […] Quantification of positive staining for Oct4 and Nanog, relative to number of cells as quantified by DAPI staining, is shown in FIG. 25B. […] Nanog was expressed by 89% and 93% of hESCs in monolayers at 4 hours and 24 hours, respectively.

The next assay deals with hMSC monolayers. How it is done: as §1
hMSCs or hDFs were seeded on arrays at a density of ˜1×10^5 cells/cm^2 to achieve confluent monolayers within 4 hours. Cells were cultured on SAMs in αMEM media containing 10% fetal bovine serum (FBS) for 2 hours after seeding. At this time, SAM arrays were rinsed in basal medium to remove nonspecifically adhered cells and replaced in fresh αMEM+10% FBS.
In this Example, the beginning of self-assembly is characterized by the time point at which an evident decrease in projected area of the cell monolayer first occurs. The completion of self-assembly is considered the time point at which no further decreases in monolayer projected area occur, and is marked by the appearance of a plateau in graphical traces of monolayer projected area (see FIG. 28A).

Assay [3] relates to hESC monolayers. Particulars: 5% SAMs, circular spots of 1.2 mm diameter.
Experimental: Polymer stencils containing arrays of wells were created using soft lithography. Master molds containing arrays of 1.2 mm, 1.8 mm, and 2.4 mm diameter circular posts or oval-shaped or quatrefoil-shaped posts were fabricated from SU-8 (Microchem, Newton, Mass.) spin-coated silicon wafers using conventional photolithography techniques. Polydimethylsiloxane (PDMS) (Sylgard 184, Dow Corning, Midland, Mich.) was prepared by mixing a 10:1 ratio of base:curing agent (w/w) followed by degassing for approximately 45 minutes. The degassed mixture was cast over the mold and cured for 6 hours at 80° C. Following curing, PDMS stencils were removed from molds and cleaned in hexane using overnight Soxhlet extraction.
In the next assay the test system is hESCs (H1 line). Particulars: EBs from 5% SAMs, 24 hours post-assembly.

Take CGKKQRFRHRNRKG: the “cell adhesion of the hESC monolayer by adhesion ligand on the array spot” value (from here on “cell adhesion of the hESC monolayer”) in the assay with hESC (H1) is “significantly less cell attachment”. Moreover, the “time until cells detached after initial attachment” value with hESC (H1) (array spots presenting the peptide) is recorded as not above 12 h.

For the substance GWGGRGDSP, the “cell adhesion of the hESC monolayer” value in the assay on hESC (H1) is given as “best cell adhesion”.

As to GWGGRGESP [reference compound], the “cell adhesion of the hESC monolayer” value in the assay on hESC (H1) is listed as “No significant differences”.

As for KRTGQYKL, the “cell adhesion of the hESC monolayer” value in the assay on hESC (H1) is “no significant adhesion”.

Regarding cyclo(RADFDK) [reference compound], the “effect of soluble peptide on kinetics of aggregate assembly” value in assay [1] (hESC on 5% cyclo(RGDFDC) SAMs) is recorded as “no evident effect”.

With cyclo(RGDFDC), the “hESC cell adhesion as a function of adhesion ligand density” value in the assay with hESC (H1) (2% COOH fraction compared to 5% COOH, 4 to 48 hours in culture) is given as “significantly lower cell adhesion”. In the assay on hESC (H1) (10% COOH fraction compared to 5% COOH), the “hESC cell adhesion as a function of adhesion ligand density” value is “did not lead to an improved attachment”. The “cell adhesion of the hESC monolayer” value in the assay with hESC (H1) is listed as “best cell adhesion”. Further, in assay [1] (hESC on 5% cyclo(RGDFDC) SAMs), the “effect of soluble peptide on kinetics of aggregate assembly” value is recorded as “most rapid aggregate assembly”. Moreover, in assay [1] (5% COOH SAMs), the “time of forming three-dimensional cellular aggregates floating in suspension” value is 72 to 96 h. Further, in assay [1] ([…] soluble peptide in culture media, hESC on 5% cyclo(RGDFDC) SAMs), the “effect of soluble peptide on kinetics of aggregate assembly versus control” value is reported as “faster aggregate assembly”. Moreover, the “change in hESC colony projected area (indicative of aggregate self-assembly)” value in assay [1] is recorded as “evident decreases”. For the same substance, the t50 of self-assembly entry in assay [1] (hESC, 0.01% peptide SAMs) is “approximately 14 hours”. The t50 of self-assembly result in assay [1] (hESC, 0.5% COOH SAMs) was “approximately 22 hours”. In addition, the “beginning of the self-assembly process after initial seeding” value in assay [1] (hESC, 5% COOH SAMs) was 40 to 48 h. In assay [1] (hESC, 5% SAMs), the “completion of the self-assembly process after initial seeding” value is not above 72 h. In addition, the t50 of self-assembly result in assay [1] (hESC, 5% peptide SAMs) is “approximately 45 hours”. In addition, in the assay on hESC monolayers [2] (4 hours after seeding), the “hESCs in monolayers expressing Nanog” value is recorded as 89% and the “hESCs in monolayers expressing Oct4” value is “greater than 97%”. Moreover, in the assay on hESC monolayers [2] (24 hours after seeding), the “hESCs in monolayers expressing Nanog” value came to 93% and the “hESCs in monolayers expressing Oct4” value stood at 93%. Further, in the assay on hMSC monolayers, the “beginning of self-assembly after initial seeding” value was not above 24 h, the “completion of self-assembly after initial seeding” value is not above 36 h and the “t50 of self-assembly of hMSCs” value is “approximately 30 hours”. For the same substance, the “time to form self-assembled EBs” value in the assay with hESC monolayers [3] is not above 72 h. Moreover, in the assay on hESCs (H1 line), the “Nanog+ cells dissociated from EBs” value is “approximately 91%” and the “Oct4+ cells dissociated from EBs” value is “approximately 99%”.

As for cyclo(RGDFDK) [reference compound], the “cellular self-assembly behavior of hESC monolayers” value in assay [1] (5% COOH SAMs) is on record as “no cellular self-assembly behavior”. Besides, the “change in hESC colony projected area (indicative of aggregate self-assembly)” value in assay [1] is on record as “no such decreases”. The “detachment of hESC monolayers” value in assay [1] (over 96 hours) is given as “no observable detachment”.
